# Data published in US6613956B1, “PI 3-kinase fusion mutants and uses thereof” (Chiron Corporation, priority 1996, dated 2003).
# Key:
# Akt = biological target: T1, Akt (Mus musculus, UniProt P31750); experiment: In vitro protein kinase assay of immobilized Akt preincubated with phospholipid vesicles, histone H2B as substrate; format: biochemical; details: for stimulation of Akt: p110*-generated PI3,4P2 in PC vesicles, relative to unstimulated Akt; for increases Akt activity: summary statement for the three PI 3-kinase products
# T1 construct: made in house; host or cells: COS-7 cells (transient transfection, anti-HA 12CA5 immunoprecipitation on Protein A-Sepharose)
# Akt RC25 = biological target: T2, Akt RC25 (Homo sapiens, UniProt P31749, R25C); experiment: In vitro kinase assay of PH domain point mutant Akt RC25 with PI3,4P2 vesicles; format: biochemical; details: vesicles generated with p110*
# T2 construct: made in house; host or cells: COS-7 cells (transient transfection, anti-HA 12CA5 immunoprecipitation on Protein A-Sepharose)
# Excerpt: We determined that the PH domain at the Akt N-terminus is essential for PI3,4P2 mediated stimulation. It has previously been reported that the stimulation of the kinase activity of Akt by PI 3-kinase in vivo is dependent on the PH domain at its immediate N-terminus. We determined that PI3,4P2 mediates its stimulatory effect on Akt through its PH domain by introducing a point mutation in the PH domain of Akt (Akt RC25) which abrogates PI 3-kinase-mediated Akt activation in vivo. A kinase-deficient Akt, Akt KA179, was tested as an additional control. We incubated Akt, Akt RC25 and Akt KA179 proteins with PI3,4P2 in phospholipid vesicles using p110* as described above. […] The kinase-deficient Akt KA179 had no detectable enzymatic activity.
# The assay for the in vitro protein kinase activity of Akt was conducted with immobilized Akt that was preincubated with or without mixed phospholipid vesicles (20 μl) for 10 min and subjected to an in vitro protein kinase assay using histone H2B (Boehringer Mannheim) as a substrate. […] The reactions were stopped by the addition of 8 μl Lammli-sample buffer and 22 μi of each reaction mixture were analyzed by 16% SDS-PAGE. The relative amounts of incorporated radioactivity were visualized by autoradiography and quantitated using a Molecular Imager System (BioRad).
# T1 sequence (P31750 whole entry): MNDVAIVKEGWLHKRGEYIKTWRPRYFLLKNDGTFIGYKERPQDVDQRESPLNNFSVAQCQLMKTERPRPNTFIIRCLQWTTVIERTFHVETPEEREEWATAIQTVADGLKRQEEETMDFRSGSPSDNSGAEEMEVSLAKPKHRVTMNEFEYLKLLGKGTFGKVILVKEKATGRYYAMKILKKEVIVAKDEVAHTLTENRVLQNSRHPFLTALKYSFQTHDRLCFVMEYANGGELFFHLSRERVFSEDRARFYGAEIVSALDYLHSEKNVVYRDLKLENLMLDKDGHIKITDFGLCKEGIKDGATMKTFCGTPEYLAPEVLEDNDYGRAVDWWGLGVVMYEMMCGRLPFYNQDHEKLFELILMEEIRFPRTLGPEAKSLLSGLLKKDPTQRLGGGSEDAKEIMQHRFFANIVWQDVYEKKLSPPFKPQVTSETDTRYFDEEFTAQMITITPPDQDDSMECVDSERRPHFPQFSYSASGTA
# T2 sequence (P31749 whole entry R25C, the tested form may be a part): as the sequence (P31750 whole entry) above, with N2S, R25C, S50A, A100T, R112K, T117E, T389K, N410G, D415H counted along it
Substance,Akt activation (Akt; PE/PS vesicles),stimulation of Akt (Akt; 4 μM) [fold],stimulation of Akt (Akt; average) [fold],"Akt activation (Akt; presence of PS in the PI3,4P2/PC vesicles)",increases Akt activity (Akt),"Akt activation (Akt; synthetic PI3,4P2 in either PE or PS vesicles)","further increase in Akt activation (Akt; synthetic dipalmitoyl derivatives of PI3,4P2, 260 nM to 1.3 μM)","increase in kinase activity of Akt (Akt; synthetic dipalmitoylated PI3,4P2 in PC vesicles)","activation of Akt by PI3,4P2 containing vesicles (Akt; wild-type Akt, vesicles generated with p110*)","activation of Akt RC25 by PI3,4P2 containing vesicles (Akt RC25)","stimulation of Akt kinase activity (Akt; vesicles containing synthetic PI3P, any conditions)"
"phosphatidylinositol 3,4 bisphosphate [PI3,4P2]",did not allow activation of Akt,9,3,interfered with Akt activation,increases Akt activity,No activation,No further increase,approximately 2.5 fold,efficiently activated,not activated,–
PI 3-phosphate [PI3P],–,–,–,–,not,–,–,–,–,–,No stimulation
